Structures can show the parent of a compound that is named as a salt.
Experiments:
Conditions in all cases: 72 h
[1] = tested on: Caco-2; assay: relative viability EC50 (midpoint between 100% and the lowest measured viability); higher = less toxic
[2] = tested on: HepG2; assay: as above
[3] = tested on: U2OS; assay: as above
[4] = tested on: Calu-3; assay: as above
[5] = tested on: Vero E6; assay: as above
[6] = tested on: Caco-2; assay: drug sensitivity score (DSS) for viability; higher = more toxic; extreme values may be limits of the assay
[7] = tested on: HepG2; assay: as above
[8] = tested on: U2OS; assay: as above
[9] = tested on: Calu-3; assay: as above
[10] = tested on: Vero E6; assay: as above
[11] = tested on: Caco-2; assay: cell viability relative to DMSO; higher = less toxic
[12] = tested on: HepG2; assay: as above
[13] = tested on: U2OS; assay: as above
[14] = tested on: Calu-3; assay: as above
[15] = tested on: Vero E6; assay: as above

| Compound | relative viability EC50 [1] [µM] | relative viability EC50 [2] [µM] | relative viability EC50 [3] [µM] | relative viability EC50 [4] [µM] | relative viability EC50 [5] [µM] | drug sensitivity score [6] | drug sensitivity score [7] | drug sensitivity score [8] | drug sensitivity score [9] | drug sensitivity score [10] | cell viability ([11]; 1 nM) [%] | cell viability ([11]; 10 nM) [%] | cell viability ([11]; 100 nM) [%] | cell viability ([11]; 1000 nM) [%] | cell viability ([11]; 10000 nM) [%] | cell viability ([12]; 1 nM) [%] | cell viability ([12]; 10 nM) [%] | cell viability ([12]; 100 nM) [%] | cell viability ([12]; 1000 nM) [%] | cell viability ([12]; 10000 nM) [%] | cell viability ([13]; 1 nM) [%] | cell viability ([13]; 10 nM) [%] | cell viability ([13]; 100 nM) [%] | cell viability ([13]; 1000 nM) [%] | cell viability ([13]; 10000 nM) [%] | cell viability ([14]; 1 nM) [%] | cell viability ([14]; 10 nM) [%] | cell viability ([14]; 100 nM) [%] | cell viability ([14]; 1000 nM) [%] | cell viability ([14]; 10000 nM) [%] | cell viability ([15]; 1 nM) [%] | cell viability ([15]; 10 nM) [%] | cell viability ([15]; 100 nM) [%] | cell viability ([15]; 1000 nM) [%] | cell viability ([15]; 10000 nM) [%] |
| --- | --- | --- | --- | --- | --- | --- | --- | --- | --- | --- | --- | --- | --- | --- | --- | --- | --- | --- | --- | --- | --- | --- | --- | --- | --- | --- | --- | --- | --- | --- | --- | --- | --- | --- | --- |
| Ic1cc(-c2ccccc2)ncn1 [4-iodo-6-phenylpyrimidine] | > 10 | > 10 | > 10 | > 10 | > 10 | 0 | 0 | 0 | 0 | 0 | 93.8 | 101 | 104 | 97.5 | 98 | 100 | 107 | 96.8 | 105 | 98.8 | 102 | 97.2 | 102 | 99.1 | 102 | 100 | 105 | 105 | 87.2 | 104 | 105 | 102 | 97.7 | 105 | 95.5 |
| CN(Cc1cccc(-c2ccccc2)c1)C(=O)Oc1ccc(-c2ccc(C(N)=O)cc2)cc1 [WWL-123] | > 10 | > 10 | > 10 | > 10 | > 10 | 0.4 | 0 | 0 | 0 | 0 | 99.1 | 95.4 | 98.1 | 91.8 | 84.8 | 95.9 | 110 | 108 | 102 | 100 | 101 | 98.7 | 102 | 98 | 101 | 101 | 99.7 | 101 | 105 | 99.4 | 101 | 100 | 101 | 99.5 | 98.3 |
| COc1ccnc(C[S+]([O-])c2nc3cc(OC(F)F)ccc3[nH]2)c1OC (stereo not given) [pantoprazole] | > 10 | > 10 | > 10 | > 10 | > 10 | 0 | 0 | 0 | 0 | 0 | 99.5 | 104 | 98.7 | 103 | 89.4 | 106 | 107 | 111 | 99.2 | 117 | 109 | 105 | 102 | 101 | 99.3 | 99 | 99.1 | 98.4 | 95.9 | 94.8 | 95.4 | 97.1 | 91.7 | 91 | 99.2 |
| O=C(Nc1ccc(Cl)cc1)Nc1ccc(Cl)c(Cl)c1 [triclocarban] | > 10 | > 10 | > 10 | > 10 | > 10 | 0 | 0 | 0 | 0 | 0 | 82.8 | 59.4 | 94.2 | 104 | 87.9 | 90 | 88.1 | 99.6 | 98.1 | 97.1 | 92.6 | 96.5 | 94.2 | 102 | 97.2 | 97.2 | 93.3 | 97.3 | 88.8 | 100 | 101 | 89.4 | 103 | 86.8 | 95.4 |
| O=C(O)c1ccccc1NCCc1ccccc1 [tromaril] | > 10 | > 10 | > 10 | > 10 | > 10 | 0 | 0 | 0 | 0 | 0 | 97 | 97 | 96.9 | 96.2 | 102 | 102 | 101 | 93.8 | 104 | 95 | 102 | 102 | 101 | 96.4 | 101 | 106 | 94.5 | 99.3 | 90.1 | 106 | 97.5 | 99.5 | 99 | 102 | 95.5 |
| CC[C@@H](c1cccc(O)c1)[C@@H](C)CN(C)C [Tapentadol (hydrochloride)] | > 10 | > 10 | > 10 | > 10 | > 10 | 0 | 0 | 0 | 0.1 | 0 | 93.5 | 99.6 | 96.3 | 91.7 | 107 | 97 | 90.6 | 95.2 | 101 | 99.9 | 97 | 99.7 | 102 | 93.9 | 97.8 | 89 | 80.2 | 102 | 90.9 | 92.5 | 103 | 108 | 97.3 | 97.1 | 96.3 |
| O=C(N[C@H]1CN2CCC1CC2)c1cc2cccc(Cl)c2s1 [EVP-6124] | > 10 | > 10 | > 10 | > 10 | > 10 | 0 | 0 | 0 | 0 | 0 | 94.6 | 97.5 | 98.2 | 101 | 92.9 | 90.6 | 95 | 106 | 92.7 | 94.7 | 104 | 100 | 95 | 103 | 95.2 | 87.9 | 92 | 89.1 | 98.5 | 85.1 | 95.6 | 92.2 | 97.8 | 96 | 92.9 |
